From patent US11787847B2, “Method of identifying malodor modulating compounds” (FIRMENICH SA, priority 2017, dated 2023)

Tests used:
Assay in all cases: cell-based dose-response, Ca2+ increase (Calcium 5 dye, FLIPR), HEK293T line stably expressing FLAG-Rho tagged receptor with human Gα15
human receptor OR2L13 = target: T1, human receptor OR2L13 (Homo sapiens, UniProt Q8N349); settings: FIG. 3, Example 3, SEQ ID NO: 26, stable HEK293T
T1 construct: The receptors were tagged with a FLAG®-Rho tag combination; expressed in transfected cells
T1 sequence (Q8N349 1-312): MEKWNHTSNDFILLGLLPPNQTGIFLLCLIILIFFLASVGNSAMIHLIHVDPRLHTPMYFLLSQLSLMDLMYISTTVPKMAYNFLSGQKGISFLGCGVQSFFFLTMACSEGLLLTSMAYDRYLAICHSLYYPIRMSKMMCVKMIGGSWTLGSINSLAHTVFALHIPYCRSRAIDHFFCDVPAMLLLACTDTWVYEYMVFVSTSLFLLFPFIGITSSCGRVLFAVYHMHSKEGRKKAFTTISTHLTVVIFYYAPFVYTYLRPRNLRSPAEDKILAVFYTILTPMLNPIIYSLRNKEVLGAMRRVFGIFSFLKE
Method: (§1) Functional dose-response experiments were performed to evaluate the level of DMTS activity of the modified cell lines expressing individual putative DMTS receptors. A cell line stably expressing a human receptor was generated in a HEK293T cell line for each of the following human receptors: OR2L13, OR4C15, OR5AC2, OR8H3, OR11G2 or OR52N2. The receptors were tagged with a FLAG®-Rho tag combination and stably co-expressed with the human G-protein alpha subunit Gals for the cell based assay. Co-expression of the human Gals activates the Gq transduction pathway that leads to an internal Ca^2+ increase upon binding to the appropriate ligand. Receptors were exposed to increasing concentrations of DMTS. Odorant-induced activity was detected by measuring the Ca^2+ increase in the cytosol using a calcium sensitive fluorescent dye (Molecular Devices, Calcium 5 dye, cat. R8186) and measuring the change in Relative Fluorescence Ratio (RFU) using a fluorometric imaging plate reader (Molecular Devices, FLIPR) following odorant exposure. […] A cell line lacking a receptor was used as a control for non-specific activity at high compound concentrations (‘No receptor’). The activity levels are reported by the potency of the DMTS induced-response for each receptor as a measure of the EC50 value.

human receptor OR5AC2 = target: T2, human receptor OR5AC2 (Homo sapiens, UniProt Q9NZP5); settings: FIG. 3, Example 3, SEQ ID NO: 32, stable HEK293T
T2 construct: The receptors were tagged with a FLAG®-Rho tag combination; expressed in transfected cells
T2 sequence (Q9NZP5 1-309): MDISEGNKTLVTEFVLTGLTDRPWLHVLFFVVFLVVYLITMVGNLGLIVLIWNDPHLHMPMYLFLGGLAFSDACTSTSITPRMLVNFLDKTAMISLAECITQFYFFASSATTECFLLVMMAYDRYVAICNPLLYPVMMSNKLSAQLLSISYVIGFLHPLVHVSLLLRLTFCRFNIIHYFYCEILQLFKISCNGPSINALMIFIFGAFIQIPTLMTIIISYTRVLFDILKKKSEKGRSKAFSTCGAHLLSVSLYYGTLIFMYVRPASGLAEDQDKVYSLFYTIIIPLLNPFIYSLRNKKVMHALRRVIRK
Method: as §1

human receptor OR4C15 = target: T3, human receptor OR4C15 (Homo sapiens, UniProt Q8NGM1); settings: FIG. 3, Example 3, SEQ ID NO: 30, stable HEK293T
T3 construct: The receptors were tagged with a FLAG®-Rho tag combination; expressed in transfected cells
T3 sequence (Q8NGM1 with tags, fused parts or gaps): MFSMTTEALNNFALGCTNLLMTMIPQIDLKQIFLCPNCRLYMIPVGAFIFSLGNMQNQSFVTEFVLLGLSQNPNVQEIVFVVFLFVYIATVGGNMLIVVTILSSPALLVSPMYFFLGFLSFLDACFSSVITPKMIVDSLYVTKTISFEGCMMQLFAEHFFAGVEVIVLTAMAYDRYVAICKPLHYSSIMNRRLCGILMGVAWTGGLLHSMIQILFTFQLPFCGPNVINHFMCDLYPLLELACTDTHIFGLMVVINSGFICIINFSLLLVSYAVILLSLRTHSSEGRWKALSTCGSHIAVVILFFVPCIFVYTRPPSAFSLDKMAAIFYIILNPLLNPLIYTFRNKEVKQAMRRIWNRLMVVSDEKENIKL
Method: as §1

human receptor OR11G2 = target: T4, human receptor OR11G2 (Homo sapiens, UniProt Q8NGC1); settings: FIG. 3, Example 3, SEQ ID NO: 36, stable HEK293T
T4 construct: The receptors were tagged with a FLAG®-Rho tag combination; expressed in transfected cells
T4 sequence (Q8NGC1 35-345 limits assumed): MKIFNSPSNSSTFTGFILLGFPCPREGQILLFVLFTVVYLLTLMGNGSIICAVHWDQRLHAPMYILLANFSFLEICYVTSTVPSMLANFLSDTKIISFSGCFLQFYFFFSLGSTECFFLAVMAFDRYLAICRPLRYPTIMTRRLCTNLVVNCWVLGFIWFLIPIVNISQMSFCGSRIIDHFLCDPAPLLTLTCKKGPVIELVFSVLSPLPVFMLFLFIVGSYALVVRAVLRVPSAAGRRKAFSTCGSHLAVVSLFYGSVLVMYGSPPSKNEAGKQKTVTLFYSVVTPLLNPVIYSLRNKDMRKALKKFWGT
Method: as §1

CSSSC [DMTS, dimethyl trisulfide]
EC50 (human receptor OR2L13): 59 µM | EC50 (human receptor OR5AC2): 27 µM | EC50 (human receptor OR4C15): 0.8 µM | EC50 (human receptor OR11G2): 12 µM
